# Reference: US9650379B2 (CHONG KUN DANG PHARMACEUTICAL CORP., priority 2013, dated 2017)
# Experiments:
# HDAC6 human recombinant = molecular target: T1, HDAC6 human recombinant (Homo sapiens, UniProt Q9UBN7); experiment: Inhibition of HDAC6 activity (fluorimetric assay); type: biochemical; conditions: test concentrations 0.1, 1, 10, 100 and 1000 nM; 37° C., 60 minutes
# T1 construct: purchased Calbiochem 382180
# T1 sequence (Q9UBN7 1-1215): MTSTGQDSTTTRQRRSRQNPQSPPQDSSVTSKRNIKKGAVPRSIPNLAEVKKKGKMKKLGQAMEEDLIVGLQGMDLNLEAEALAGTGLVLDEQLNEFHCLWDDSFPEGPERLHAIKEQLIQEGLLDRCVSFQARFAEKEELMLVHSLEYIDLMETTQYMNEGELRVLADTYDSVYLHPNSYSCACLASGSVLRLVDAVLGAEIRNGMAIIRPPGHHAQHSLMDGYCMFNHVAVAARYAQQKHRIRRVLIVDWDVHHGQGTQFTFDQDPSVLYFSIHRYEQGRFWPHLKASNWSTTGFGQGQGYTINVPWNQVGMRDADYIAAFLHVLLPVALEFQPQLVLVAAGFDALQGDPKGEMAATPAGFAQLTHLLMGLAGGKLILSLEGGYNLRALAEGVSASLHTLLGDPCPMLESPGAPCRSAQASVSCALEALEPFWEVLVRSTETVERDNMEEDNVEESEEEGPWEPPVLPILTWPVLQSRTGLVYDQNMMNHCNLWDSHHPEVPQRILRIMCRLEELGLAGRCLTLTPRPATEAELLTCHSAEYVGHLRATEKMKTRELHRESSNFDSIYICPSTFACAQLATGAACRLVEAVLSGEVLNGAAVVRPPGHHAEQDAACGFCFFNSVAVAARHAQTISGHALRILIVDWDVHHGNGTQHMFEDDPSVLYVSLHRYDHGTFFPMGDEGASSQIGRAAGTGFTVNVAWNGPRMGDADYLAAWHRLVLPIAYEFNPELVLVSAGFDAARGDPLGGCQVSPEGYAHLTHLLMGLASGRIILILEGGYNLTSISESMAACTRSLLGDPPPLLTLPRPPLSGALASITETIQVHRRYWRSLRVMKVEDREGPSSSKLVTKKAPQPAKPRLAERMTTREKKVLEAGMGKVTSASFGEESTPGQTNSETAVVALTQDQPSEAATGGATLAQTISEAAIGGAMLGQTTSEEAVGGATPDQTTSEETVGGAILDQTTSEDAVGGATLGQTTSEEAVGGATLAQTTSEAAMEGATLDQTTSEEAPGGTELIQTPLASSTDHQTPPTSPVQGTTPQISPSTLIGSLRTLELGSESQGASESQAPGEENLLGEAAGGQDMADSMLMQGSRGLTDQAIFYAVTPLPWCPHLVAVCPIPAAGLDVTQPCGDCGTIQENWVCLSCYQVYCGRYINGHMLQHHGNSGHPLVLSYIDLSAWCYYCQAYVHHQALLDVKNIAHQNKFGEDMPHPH
# Protocol: (§1) Assays were performed using a HDAC1 fluorimetric drug discovery assay kit (Enzolifesciences: BML-AK511) and a HDAC6 human recombinant (Calbiochem: 382180). The assay mixture of the kit was treated with a test compound at concentrations of 100, 1000 and 10000 nM for HDAC1 assay and concentrations of 0.1, 1, 10, 100 and 1000 nM for HDAC6 assay. The treated assay mixture was allowed to react at 37° C. for 60 minutes, and then was treated with a developer and allowed to stand at 37° C. for 30 minutes, followed by quantification of the fluorescence.
# HDAC1 = molecular target: T2, HDAC1 (Homo sapiens, UniProt Q13547); experiment: Inhibition of HDAC1 activity (HDAC1 fluorimetric drug discovery assay kit); type: biochemical; conditions: test concentrations 100, 1000 and 10000 nM; 37° C., 60 minutes
# T2 construct: purchased Enzolifesciences BML-AK511
# T2 sequence (Q13547 whole entry): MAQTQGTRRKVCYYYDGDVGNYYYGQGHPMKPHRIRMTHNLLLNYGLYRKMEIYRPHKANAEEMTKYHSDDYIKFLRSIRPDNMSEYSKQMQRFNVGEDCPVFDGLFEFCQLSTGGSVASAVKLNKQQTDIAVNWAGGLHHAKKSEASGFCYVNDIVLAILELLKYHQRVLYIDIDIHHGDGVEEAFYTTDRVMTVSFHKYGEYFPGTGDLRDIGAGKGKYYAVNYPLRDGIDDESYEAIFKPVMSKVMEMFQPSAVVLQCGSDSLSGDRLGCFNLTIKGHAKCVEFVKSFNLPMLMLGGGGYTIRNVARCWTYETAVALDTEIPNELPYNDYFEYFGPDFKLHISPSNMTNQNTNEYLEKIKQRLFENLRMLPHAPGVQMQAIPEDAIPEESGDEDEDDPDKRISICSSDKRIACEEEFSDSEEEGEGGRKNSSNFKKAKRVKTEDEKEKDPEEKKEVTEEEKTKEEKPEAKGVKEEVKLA
# Protocol: as §1
Structure (SMILES),IC50 (HDAC6 human recombinant),IC50 (HDAC1)
"Nc1cccc(-c2cnc3c(ccn3Cc3ccc(C(=O)NO)cc3)c2)c1 [Compound 690, 4-((5-(3-aminophenyl)-1H-pyrrolo[2,3-b]pyridin-1-yl)methyl)-N-hydroxybenzamide]",12 nM,2310 nM
"O=C(NO)c1ccc(Cn2ccc3c(N4CCN(c5ccc(C(F)(F)F)cn5)CC4)ccnc32)cc1 [Compound 700, N-hydroxy-4-((4-(4-(5-(trifluoromethyl)pyridin-2-yl)piperazin-1-yl)-1H-pyrrolo[2,3-b]pyridin-1-yl)methyl)benzamide]",41 nM,4240 nM
"CCc1cnc(N2CCN(c3ccnc4c3ccn4Cc3ccc(C(=O)NO)cc3)CC2)nc1 [Compound 702, 4-((4-(4-(5-ethylpyrimidin-2-yl)piperazin-1-yl)-1H-pyrrolo[2,3-b]pyridin-1-yl)methyl)-N-hydroxybenzamide]",16 nM,1040 nM
"O=C(NO)c1ccc(Cn2ccc3c(N4CCN(C(=O)C5(C(F)(F)F)CCC5)CC4)ccnc32)cc1 [Compound 703, N-hydroxy-4-((4-(4-(1-(trifluoromethyl)cyclobutanecarbonyl)piperazin-1-yl)-1H-pyrrolo[2,3-b]pyridin-1-yl)methyl)benzamide]",6 nM,720 nM
"O=C(NO)c1ccc(Cn2ccc3c(N4CCN(Cc5ccc(C(F)(F)F)cc5)CC4)ccnc32)cc1 [Compound 706, N-hydroxy-4-((4-(4-(4-(trifluoromethyl)benzyl)piperazin-1-yl)-1H-pyrrolo[2,3-b]pyridin-1-yl)methyl)benzamide]",30 nM,2330 nM
"CC(C)(O)CN1CCC(c2cnc3c(ccn3Cc3ccc(C(=O)NO)cc3)c2)CC1 [Compound 714, N-hydroxy-4-((5-(1-(2-hydroxy-2-methylpropyl)piperidin-4-yl)-1H-pyrrolo[2,3-b]pyridin-1-yl)methyl)benzamide]",12 nM,1200 nM
"Nc1cccc(-c2ccnc3c2ccn3Cc2ccc(C(=O)NO)cc2)c1 [Compound 722, 4-((4-(3-aminophenyl)-1H-pyrrolo[2,3-b]pyridin-1-yl)methyl)-N-hydroxybenzamide]",3 nM,270 nM
"O=C(NO)c1ccc(Cn2ccc3cc(C4CCN(CC5(C(F)(F)F)CCC5)CC4)cnc32)cc1 [Compound 724, N-hydroxy-4-((5-(1-((1-(trifluoromethyl)cyclobutyl)methyl)piperidin-4-yl)-1H-pyrrolo[2,3-b]pyridin-1-yl)methyl)benzamide]",147 nM,9820 nM
"O=C(NO)c1ccc(Cn2ccc3ccc(C4=CCOCC4)nc32)cc1 [Compound 743, 4-((6-(3,6-dihydro-2H-pyran-4-yl)-1H-pyrrolo[2,3-b]pyridin-1-yl)methyl)-N-hydroxybenzamide]",25 nM,190 nM
"CC(C)(C)OC(=O)N1CC=C(c2ccc3c(ccn3Cc3ccc(C(=O)NO)cc3)n2)CC1 [Compound 758, tert-butyl 4-(1-(4-(hydroxycarbamoyl)benzyl)-1H-pyrrolo[3,2-b]pyridin-5-yl)-5,6-dihydropyridine-1(2H)-carboxylate]",8 nM,1630 nM

# Next, values leading:
IC50 (HDAC6 human recombinant),IC50 (HDAC1),Structure (SMILES)
5 nM,2310 nM,"O=C(NO)c1ccc(Cn2ccc3cc(-c4ccc(O)cc4)cnc32)cc1 [Compound 691, N-hydroxy-4-((5-(4-hydroxyphenyl)-1H-pyrrolo[2,3-b]pyridin-1-yl)methyl)benzamide]"
8 nM,3430 nM,"CC(C)(C)OC(=O)N1CC=C(c2cnc3c(ccn3Cc3ccc(C(=O)NO)cc3)c2)CC1 [Compound 692, tert-butyl 4-(1-(4-(hydroxycarbamoyl)benzyl)-1H-pyrrolo[2,3-b]pyridin-5-yl)-5,6-dihydropyridine-1(2H)-carboxylate]"
3 nM,520 nM,"O=C(NO)c1ccc(Cn2ccc3cc(C4=CCNCC4)cnc32)cc1 [Compound 693, N-hydroxy-4-((5-(1,2,3,6-tetrahydropyridin-4-yl)-1H-pyrrolo[2,3-b]pyridin-1-yl)methyl)benzamide]"
28 nM,5170 nM,"CC(C)(C)OC(=O)N1CCC(c2cnc3c(ccn3Cc3ccc(C(=O)NO)cc3)c2)CC1 [Compound 694, tert-butyl 4-(1-(4-(hydroxycarbamoyl)benzyl)-1H-pyrrolo[2,3-b]pyridin-5-yl)piperidine-1-carboxylate]"
23 nM,1530 nM,"O=C(NO)c1ccc(Cn2ccc3c(N4CCN(c5cnc(C(F)(F)F)cn5)CC4)ccnc32)cc1 [Compound 701, N-hydroxy-4-((4-(4-(5-(trifluoromethyl)pyrazin-2-yl)piperazin-1-yl)-1H-pyrrolo[2,3-b]pyridin-1-yl)methyl)benzamide]"
9 nM,620 nM,"O=C(NO)c1ccc(Cn2ccc3c(N4CCN(Cc5ccccc5)CC4)ccnc32)cc1 [Compound 704, 4-((4-(4-benzylpiperazin-1-yl)-1H-pyrrolo[2,3-b]pyridin-1-yl)methyl)-N-hydroxybenzamide]"
11 nM,1120 nM,"COc1ccc(CN2CCN(c3ccnc4c3ccn4Cc3ccc(C(=O)NO)cc3)CC2)cc1 [Compound 705, N-hydroxy-4-((4-(4-(4-methoxybenzyl)piperazin-1-yl)-1H-pyrrolo[2,3-b]pyridin-1-yl)methyl)-benzamide]"
8 nM,540 nM,"O=C(NO)c1ccc(Cn2ccc3cc(C4CCNCC4)cnc32)cc1 [Compound 715, N-hydroxy-4-((5-(piperidin-4-yl)-1H-pyrrolo[2,3-b]pyridin-1-yl)methyl)benzamide]"
19 nM,1320 nM,"O=C(NO)c1ccc(Cn2ccc3cc(C4=CCN(CC5CCCCC5)CC4)cnc32)cc1 [Compound 721, 4-((5-(1-(cyclohexylmethyl)-1,2,3,6-tetrahydropyridin-4-yl)-1H-pyrrolo[2,3-b]pyridin-1-yl)methyl)-N-hydroxybenzamide]"
5 nM,310 nM,"CN1CC=C(c2ccnc3c2ccn3Cc2ccc(C(=O)NO)cc2)CC1 [Compound 723, N-hydroxy-4-((4-(1-methyl-1,2,3,6-tetrahydropyridin-4-yl)-1H-pyrrolo[2,3-b]pyridin-1-yl)methyl)benzamide]"
62 nM,1890 nM,"CC(C)(C)OC(=O)N1CC=C(c2ccc3ccn(Cc4ccc(C(=O)NO)cc4)c3n2)CC1 [Compound 744, tert-butyl 4-(1-(4-(hydroxycarbamoyl)benzyl)-1H-pyrrolo[2,3-b]pyridin-6-yl)-5,6-dihydropyridine-1(2H)-carboxylate]"
22 nM,1960 nM,"CC(C)(C)OC(=O)N1CCN(c2cnc3c(ccn3Cc3ccc(C(=O)NO)cc3)c2)CC1 [Compound 746, tert-butyl 4-(1-(4-(hydroxycarbamoyl)benzyl)-1H-pyrrolo[2,3-b]pyridine-5-yl)piperazine-1-carboxylate]"
17 nM,1120 nM,"CC(C)(C)OC(=O)N1CC=C(c2nccc3c2ccn3Cc2ccc(C(=O)NO)cc2)CC1 [Compound 757, tert-butyl 4-(1-(4-(hydroxycarbamoyl)benzyl)-1H-pyrrolo[3,2-c]pyridin-4-yl)-5,6-dihydropyridine-1(2H)-carboxylate]"
37 nM,3210 nM,"CC(C)(C)OC(=O)N1CCC(F)(CN2CCN(c3ccnc4c3ccn4Cc3ccc(C(=O)NO)cc3)CC2)CC1 [Compound 760, tert-butyl 4-fluoro-4-((4-(1-(4-(hydroxycarbamoyl)benzyl)-1H-pyrrolo[2,3-b]pyridin-4-yl)piperazin-1-yl)methyl)piperidine-1-carboxylate]"
9 nM,430 nM,"O=C(NO)c1ccc(Cn2ccc3c(-c4cccc(CN5CCOCC5)c4)ccnc32)cc1 [Compound 761, N-hydroxy-4-((4-(3-(morpholinomethyl)phenyl)-1H-pyrrolo[2,3-b]pyridin-1-yl)methyl)benzamide]"
